{"source": "paper PMC12186298", "about": "“Phase 1 clinical trial of eneboparatide, a novel PTH receptor 1 agonist” (Endocrine Connections, 2025)", "system": "healthy subjects", "test": "Safety and tolerability, adverse events, Part B MAD", "settings": "Part B, n = 8", "note": "Peptide text beside a SMILES is read from it.", "method": "A total of five sequential cohorts were included in Part B with ten subjects in each cohort (eight receiving eneboparatide at a dose of 10, 20, 40, 60 and 80 μg/day, respectively, and two receiving placebo in a randomized and double-blind manner). […] They were resident in the study unit until day 17 and FU evaluation was performed on day 21–25.\nSafety and tolerability assessments consisted of adverse events (AEs), clinical laboratory (clinical chemistry, haematology, coagulation, and urinalysis), vital signs (blood pressure, pulse rate, respiratory rate, and temperature), 12-lead ECG (Part B), 24 h continuous cardiac monitoring (telemetry; Part A), body weight, physical examination, injection site reaction, and measurement of antidrug antibodies (ADA) in plasma (Part B)."}
{"smiles": "CC[C@H](C)[C@H](NC(=O)[C@H](CCC(=O)O)NC(=O)[C@H](C)NC(=O)[C@@H](NC(=O)[C@H](Cc1c[nH]cn1)NC(=O)[C@@H](NC(=O)[C@H](CCC(=O)O)NC(=O)[C@H](C)NC(=O)[C@@H](NC(=O)[C@H](CC(C)C)NC(=O)[C@H](CCCCN)NC(=O)[C@H](Cc1c[nH]cn1)NC(=O)[C@H](CC(C)C)NC(=O)[C@H](Cc1ccccc1)NC(=O)[C@H](C)NC(=O)[C@H](CCCNC(=N)N)NC(=O)[C@H](CCCNC(=N)N)NC(=O)[C@H](CCCNC(=N)N)NC(=O)[C@H](C)NC(=O)[C@H](CC(=O)O)NC(=O)[C@H](CCC(N)=O)NC(=O)[C@@H](NC(=O)[C@H](Cc1c[nH]c2ccccc12)NC(=O)[C@H](CCCCN)NC(=O)[C@H](C)NC(=O)[C@H](CCCNC(=N)N)NC(=O)[C@H](CCC(N)=O)NC(=O)[C@H](Cc1c[nH]cn1)NC(=O)[C@H](CCSC)NC(=O)[C@H](CC(C)C)NC(=O)[C@H](CCC(N)=O)NC(=O)[C@@H](NC(=O)[C@H](CCC(=O)O)NC(=O)[C@H](C)NC(=O)[C@@H](NC(=O)[C@H](C)N)C(C)C)[C@@H](C)CC)[C@@H](C)CC)[C@@H](C)CC)[C@@H](C)CC)[C@@H](C)O)C(=O)O", "note": "[eneboparatide] (H-AVAEIQLMHQRAKWIQDARRRAFLHKLIAEIHTAEI-OH; N-terminus and C-terminus assumed)", "values": [{"measurement": "Abdominal pain, subjects with TEAE", "setting": "10 μg/day sc 14 days", "value": 0}, {"measurement": "Application site irritation, subjects with TEAE", "setting": "10 μg/day sc 14 days", "value": 0}, {"measurement": "Catheter site haematoma, subjects with TEAE", "setting": "10 μg/day sc 14 days", "value": 3}, {"measurement": "Catheter site pain, subjects with TEAE", "setting": "10 μg/day sc 14 days", "value": 1}, {"measurement": "Decreased appetite, subjects with TEAE", "setting": "10 μg/day sc 14 days", "value": 0}, {"measurement": "Diarrhoea, subjects with TEAE", "setting": "10 μg/day sc 14 days", "value": 0}, {"measurement": "Dizziness, subjects with TEAE", "setting": "10 μg/day sc 14 days", "value": 0}, {"measurement": "Dry skin, subjects with TEAE", "setting": "10 μg/day sc 14 days", "value": 0}, {"measurement": "Dyspepsia, subjects with TEAE", "setting": "10 μg/day sc 14 days", "value": 0}, {"measurement": "Fatigue, subjects with TEAE", "setting": "10 μg/day sc 14 days", "value": 2}, {"measurement": "Flatulence, subjects with TEAE", "setting": "10 μg/day sc 14 days", "value": 1}, {"measurement": "Headache, subjects with TEAE", "setting": "10 μg/day sc 14 days", "value": 1}, {"measurement": "Injection site erythema, subjects with TEAE", "setting": "10 μg/day sc 14 days", "value": 0}, {"measurement": "Injection site haematoma, subjects with TEAE", "setting": "10 μg/day sc 14 days", "value": 3}, {"measurement": "Injection site pain, subjects with TEAE", "setting": "10 μg/day sc 14 days", "value": 1}, {"measurement": "Injection site pruritus, subjects with TEAE", "setting": "10 μg/day sc 14 days", "value": 0}, {"measurement": "Injection site tenderness, subjects with TEAE", "setting": "10 μg/day sc 14 days", "value": 0}, {"measurement": "Insomnia, subjects with TEAE", "setting": "10 μg/day sc 14 days", "value": 0}, {"measurement": "Muscle spasms, subjects with TEAE", "setting": "10 μg/day sc 14 days", "value": 0}, {"measurement": "Myalgia, subjects with TEAE", "setting": "10 μg/day sc 14 days", "value": 1}, {"measurement": "Nausea, subjects with TEAE", "setting": "10 μg/day sc 14 days", "value": 0}, {"measurement": "Somnolence, subjects with TEAE", "setting": "10 μg/day sc 14 days", "value": 1}, {"measurement": "Vomiting, subjects with TEAE", "setting": "10 μg/day sc 14 days", "value": 0}, {"measurement": "Abdominal pain, subjects with TEAE", "setting": "20 μg/day sc 14 days", "value": 0}, {"measurement": "Application site irritation, subjects with TEAE", "setting": "20 μg/day sc 14 days", "value": 3}, {"measurement": "Catheter site haematoma, subjects with TEAE", "setting": "20 μg/day sc 14 days", "value": 0}, {"measurement": "Catheter site pain, subjects with TEAE", "setting": "20 μg/day sc 14 days", "value": 0}, {"measurement": "Decreased appetite, subjects with TEAE", "setting": "20 μg/day sc 14 days", "value": 0}, {"measurement": "Diarrhoea, subjects with TEAE", "setting": "20 μg/day sc 14 days", "value": 1}, {"measurement": "Dizziness, subjects with TEAE", "setting": "20 μg/day sc 14 days", "value": 1}, {"measurement": "Dry skin, subjects with TEAE", "setting": "20 μg/day sc 14 days", "value": 2}, {"measurement": "Dyspepsia, subjects with TEAE", "setting": "20 μg/day sc 14 days", "value": 1}, {"measurement": "Fatigue, subjects with TEAE", "setting": "20 μg/day sc 14 days", "value": 0}, {"measurement": "Flatulence, subjects with TEAE", "setting": "20 μg/day sc 14 days", "value": 1}, {"measurement": "Headache, subjects with TEAE", "setting": "20 μg/day sc 14 days", "value": 1}, {"measurement": "Injection site erythema, subjects with TEAE", "setting": "20 μg/day sc 14 days", "value": 1}, {"measurement": "Injection site haematoma, subjects with TEAE", "setting": "20 μg/day sc 14 days", "value": 3}, {"measurement": "Injection site pain, subjects with TEAE", "setting": "20 μg/day sc 14 days", "value": 0}, {"measurement": "Injection site pruritus, subjects with TEAE", "setting": "20 μg/day sc 14 days", "value": 2}, {"measurement": "Injection site tenderness, subjects with TEAE", "setting": "20 μg/day sc 14 days", "value": 0}, {"measurement": "Insomnia, subjects with TEAE", "setting": "20 μg/day sc 14 days", "value": 1}, {"measurement": "Muscle spasms, subjects with TEAE", "setting": "20 μg/day sc 14 days", "value": 0}, {"measurement": "Myalgia, subjects with TEAE", "setting": "20 μg/day sc 14 days", "value": 0}, {"measurement": "Nausea, subjects with TEAE", "setting": "20 μg/day sc 14 days", "value": 2}, {"measurement": "Somnolence, subjects with TEAE", "setting": "20 μg/day sc 14 days", "value": 0}, {"measurement": "Vomiting, subjects with TEAE", "setting": "20 μg/day sc 14 days", "value": 0}, {"measurement": "Abdominal pain, subjects with TEAE", "setting": "40 μg/day sc 14 days", "value": 1}, {"measurement": "Application site irritation, subjects with TEAE", "setting": "40 μg/day sc 14 days", "value": 0}, {"measurement": "Catheter site haematoma, subjects with TEAE", "setting": "40 μg/day sc 14 days", "value": 1}, {"measurement": "Catheter site pain, subjects with TEAE", "setting": "40 μg/day sc 14 days", "value": 4}, {"measurement": "Decreased appetite, subjects with TEAE", "setting": "40 μg/day sc 14 days", "value": 1}, {"measurement": "Diarrhoea, subjects with TEAE", "setting": "40 μg/day sc 14 days", "value": 2}, {"measurement": "Dizziness, subjects with TEAE", "setting": "40 μg/day sc 14 days", "value": 0}, {"measurement": "Dry skin, subjects with TEAE", "setting": "40 μg/day sc 14 days", "value": 0}, {"measurement": "Dyspepsia, subjects with TEAE", "setting": "40 μg/day sc 14 days", "value": 2}, {"measurement": "Fatigue, subjects with TEAE", "setting": "40 μg/day sc 14 days", "value": 0}, {"measurement": "Flatulence, subjects with TEAE", "setting": "40 μg/day sc 14 days", "value": 1}, {"measurement": "Headache, subjects with TEAE", "setting": "40 μg/day sc 14 days", "value": 3}, {"measurement": "Injection site erythema, subjects with TEAE", "setting": "40 μg/day sc 14 days", "value": 4}, {"measurement": "Injection site haematoma, subjects with TEAE", "setting": "40 μg/day sc 14 days", "value": 5}, {"measurement": "Injection site pain, subjects with TEAE", "setting": "40 μg/day sc 14 days", "value": 0}, {"measurement": "Injection site pruritus, subjects with TEAE", "setting": "40 μg/day sc 14 days", "value": 3}, {"measurement": "Injection site tenderness, subjects with TEAE", "setting": "40 μg/day sc 14 days", "value": 0}, {"measurement": "Insomnia, subjects with TEAE", "setting": "40 μg/day sc 14 days", "value": 1}, {"measurement": "Muscle spasms, subjects with TEAE", "setting": "40 μg/day sc 14 days", "value": 2}, {"measurement": "Myalgia, subjects with TEAE", "setting": "40 μg/day sc 14 days", "value": 4}, {"measurement": "Nausea, subjects with TEAE", "setting": "40 μg/day sc 14 days", "value": 1}, {"measurement": "Somnolence, subjects with TEAE", "setting": "40 μg/day sc 14 days", "value": 3}, {"measurement": "Vomiting, subjects with TEAE", "setting": "40 μg/day sc 14 days", "value": 0}, {"measurement": "Abdominal pain, subjects with TEAE", "setting": "60 μg/day sc 14 days", "value": 1}, {"measurement": "Application site irritation, subjects with TEAE", "setting": "60 μg/day sc 14 days", "value": 0}, {"measurement": "Catheter site haematoma, subjects with TEAE", "setting": "60 μg/day sc 14 days", "value": 0}, {"measurement": "Catheter site pain, subjects with TEAE", "setting": "60 μg/day sc 14 days", "value": 0}, {"measurement": "Decreased appetite, subjects with TEAE", "setting": "60 μg/day sc 14 days", "value": 2}, {"measurement": "Diarrhoea, subjects with TEAE", "setting": "60 μg/day sc 14 days", "value": 0}, {"measurement": "Dizziness, subjects with TEAE", "setting": "60 μg/day sc 14 days", "value": 1}, {"measurement": "Dry skin, subjects with TEAE", "setting": "60 μg/day sc 14 days", "value": 0}, {"measurement": "Dyspepsia, subjects with TEAE", "setting": "60 μg/day sc 14 days", "value": 2}, {"measurement": "Fatigue, subjects with TEAE", "setting": "60 μg/day sc 14 days", "value": 1}, {"measurement": "Flatulence, subjects with TEAE", "setting": "60 μg/day sc 14 days", "value": 1}, {"measurement": "Headache, subjects with TEAE", "setting": "60 μg/day sc 14 days", "value": 4}, {"measurement": "Injection site erythema, subjects with TEAE", "setting": "60 μg/day sc 14 days", "value": 3}, {"measurement": "Injection site haematoma, subjects with TEAE", "setting": "60 μg/day sc 14 days", "value": 3}, {"measurement": "Injection site pain, subjects with TEAE", "setting": "60 μg/day sc 14 days", "value": 2}, {"measurement": "Injection site pruritus, subjects with TEAE", "setting": "60 μg/day sc 14 days", "value": 0}, {"measurement": "Injection site tenderness, subjects with TEAE", "setting": "60 μg/day sc 14 days", "value": 2}]}
